Test results from patent CN110693875A, “一种预防或治疗性功能障碍的药物组合物及其用途” (Chengdu Baiyu Pharmaceutical Co Ltd, priority 2018, dated 2020).

Experiments:
[1] = test system: aged rat ED model (老年性大鼠ED模型); assay: Test example 2: apomorphine-induced erection and electrically evoked erection in aged rats; assay type: in vivo, SD rat; conditions: alprostadil alone, intracavernosal, 14 days
[2] = test system: neurogenic ED rat model (神经性ED大鼠模型); assay: Test example 3: mating behaviour in rats with cavernous nerve injury; assay type: in vivo, SD rat; conditions: alprostadil alone, intracavernosal, 14 days
[3] = test system: vascular ED rabbit model (血管性ED家兔模型); assay: Test example 1: mating test in vascular ED rabbits; assay type: in vivo, New Zealand white rabbit; conditions: alprostadil alone, intracavernosal; for sexual activity parameters overall vs model group: once daily 1 week
ED patient (ED) = assay: Clinical observation 1: ED patient, hypertension; assay type: in vivo, human; conditions: oral sildenafil 3 months, before the combination
[4] = test system: patient with erectile dysfunction (勃起功能障碍); assay: Clinical observation 2: patient with erectile dysfunction and premature ejaculation; assay type: in vivo, human; conditions: oral sildenafil 3 months, before the combination

| Compound | sexual activity parameters overall vs model group ([1]; high dose 10μg/kg) | sexual activity parameters overall vs model group ([1]; low dose, printed 0.02μg/kg) | sexual activity parameters overall vs model group ([2]; high dose 10μg/kg) | sexual activity parameters overall vs model group ([2]; low dose 0.1μg/kg) | observed parameters vs control group ([3]; high dose 5μg/kg) | sexual activity parameters overall vs model group ([3]; high dose 5μg/kg) | sexual activity parameters overall vs model group ([3]; low dose 0.05μg/kg) | attempted intercourse with sufficient sexual stimulation (ED patient (ED)) | IIEF-5 score after sildenafil (ED patient (ED); baseline 4) | intercourse satisfaction [4] | overall satisfaction [4] | IIEF-5 score after sildenafil ([4]; baseline 12) |
| --- | --- | --- | --- | --- | --- | --- | --- | --- | --- | --- | --- | --- |
| CCCCC[C@H](O)/C=C/[C@H]1[C@H](O)CC(=O)[C@@H]1CCCCCCC(=O)O [前列地尔, (1R,2R,3R)-3-羟基2-[(E)-(3S)-3-羟基-1-辛烯基]-5-氧代环戊烷庚酸] | 总体优于模型组 | 总体优于模型组 | 总体优于模型组 | 总体优于模型组 | 趋向于对照组 | 总体优于模型组 | 总体优于模型组 |  |  |  |  |  |
| CCCc1nn(C)c2c(=O)[nH]c(-c3cc(S(=O)(=O)N4CCN(C)CC4)ccc3OCC)nc12 [西地那非] |  |  |  |  |  |  |  | 尝试性交失败 | 5 | 未得到提高 | 略有下降 | 12 |
